Measured values taken from patent US5744449A (priority 1996, dated 1998).
Ends that are not written are not given here.

Key:
[1] = test system: O. s. scutellatus venom; details: in vivo
[2] = test system: C. atrox venom; details: in vivo
[3] = test system: N. n. kaouthia venom; details: in vivo
[4] = test system: venoms and their lethal toxins; set-up: species or system mice; details: mouse
[5] = test system: Sea snake venom; details: in vivo
[6] = test system: V. russellii venom; details: in vivo

LKAMDPTPPLWIKTE [LTNF-15]
neutralized in vivo: neutralization of venoms and their lethal toxins in vivo [4]
0/3: Death/Survival Group II (LTNF Immediately) [1] | Death/Survival Group III (LTNF 1/2 hr before) [1] | Death/Survival Group II (LTNF Immediately) [2] | Death/Survival Group III (LTNF 1/2 hr before) [2] | Death/Survival Group II (LTNF Immediately) [3] | Death/Survival Group III (LTNF 1/2 hr before) [3] | Death/Survival Group II (LTNF Immediately) [5] | Death/Survival Group III (LTNF 1/2 hr before) [5] | Death/Survival Group II (LTNF Immediately) [6] | Death/Survival Group III (LTNF 1/2 hr before) [6]
